Test system: not given
Experiment: not given
Conditions: not given

Structure (SMILES)	melting point [°C]
Cc1ccccc1-c1cc2cnc(NN3CC4CCCC4C3)nc2n(C)c1=O (stereo not drawn) [Compound No. 2, 6-(2-Methylphenyl)-2-(3-azabicyclo[3.3.0]oct-3-yl-amino)-8-methylpyrido[2,3-d]pyrimidin-7(8H)-one]	69.8 to 79.8

Molecular target: activated p38 (Homo sapiens, UniProt Q16539)
Experiment: p38 inhibition assay: inhibition of phosphorylation of EGF receptor peptide
Format: biochemical
Conditions: compound behaviour in the assay
Protocol: p38 Inhibition Assays—Inhibition of Phosphorylation of EGF Receptor Peptide
This assay was carried out in the presence of 10 mM MgCl2, 25 mM β-glycerophosphate, 10% glycerol and 100 mM HEPES buffer at pH 7.6. For a typical IC50 determination, a stock solution was prepared containing all of the above components and activated p38 (5 nM). The stock solution was aliquoted into vials. A fixed volume of DMSO or inhibitor in DMSO (final concentration of DMSO in reaction was 5%) was introduced to each vial, mixed and incubated for 15 minutes at room temperature.
EGF receptor peptide, […], a phosphoryl acceptor in p38-catalysed kinase reaction (1), was added to each vial to a final concentration of 200 μM. The kinase reaction was initiated with ATP (100 μm) and the vials were incubated at 30C. After 30 minutes, the reactions were quenched with equal volume of 10% trifluoroacetic acid (TFA).
The phosphorylated peptide was quantified by HPLC analysis. Separation of the phosphorylated peptide from the unphosphorylated peptide was achieved on a reverse phase column (Deltapak, 5 μM, C18 100D, part no. 011795) with a binary gradient of water and acetonitrile, each containing 0.1% TFA. IC50 (concentration of inhibitor yielding 50% inhibition) was determined by plotting the % activity remaining against inhibitor concentration.

Chain of activated p38 (Q16539 whole entry): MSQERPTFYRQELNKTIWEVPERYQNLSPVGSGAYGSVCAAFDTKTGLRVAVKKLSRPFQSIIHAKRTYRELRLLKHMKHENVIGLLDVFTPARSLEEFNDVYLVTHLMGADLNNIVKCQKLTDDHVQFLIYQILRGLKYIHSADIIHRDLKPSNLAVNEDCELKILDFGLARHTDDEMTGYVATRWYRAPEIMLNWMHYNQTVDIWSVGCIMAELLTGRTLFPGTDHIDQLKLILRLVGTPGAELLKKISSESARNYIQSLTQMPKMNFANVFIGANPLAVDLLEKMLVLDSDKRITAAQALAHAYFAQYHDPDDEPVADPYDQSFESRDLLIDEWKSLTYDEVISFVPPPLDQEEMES

Structure (SMILES)	observation in the p38 enzyme assay
O=c1c(-c2ccccc2F)cc2cnc(NN3CC4CCCC4C3)nc2n1Cc1ccc(F)cc1 (stereo not drawn) [Compound No. 13, 6-(2-Fluorophenyl)-2-(3-azabicyclo[3.3.0]oct-3-yl-amino)-8-(4-fluorobenzyl)-pyrido[2,3-d]pyrimidin-7(8H)-one]	formed a precipitate

Test system: TNF-α release from LPS-stimulated human peripheral blood mononuclear cells
Experiment: Cell based assay for TNF-α release, LPS stimulation of human PBMNC's
Conditions: PBMC, LPS 20 ng/ml, overnight, ELISA, collective range for the listed compounds, units given within the value (μM to nM), read-out: IC50 (TNF-α release; printed as IC50 for p38 inhibitory activity)
Protocol: Cell based Assay for TNF-α release
Method of Isolation of Human Peripheral Blood Mononuclear Cells:
Human whole blood was collected in vacutainer tubes containing EDTA as an anti coagulant. A blood sample (7 ml) was carefully layered over 5 ml PMN Cell Isolation Medium (Robbins Scientific) in a 15 ml round bottom centrifuge tubes. The sample was centrifuged at 450-500×g for 30-35 minutes in a swing-out rotor at room temperature. After centrifugation the top band of cells were removed and washed 3 times with PBS w/o calcium or magnesium. The cells were centrifuged at 400×g for 10 minutes at room temperature. The cells were resuspended in Macrophage Serum Free Medium (Gibco BRL) at concentration of 2 million cells/ml.
LPS Stimulation of Human PBMNC's:
PBM cells (0.1 ml; 2 million/ml) were co-incubated with 0.1 ml of compound (10-0.41 μM, final concentration) for 1 hour in flat bottom 96 well microtiter plate. Compounds were dissolved in DMSO initially and diluted in TCM for a final concentration of 0.1% DMSO. LPS (Cal biochem, 20 ng/ml, final concentration) was then added at volume of 0.010 ml. Cultures were incubated overnight at 37° C.). Supernatant were then removed and tested by ELISA for TNF-α release. Viability was analyzed using MTT. After 0.1 ml supernatant was collected, 0.1 ml of 0.25 mg/ml of MTT was added to remaining 0.1 ml of cells. The cells were incubated at 37° C. for 2-4 hours, then the O.D was measured at 490-650 nm.
The TNF-α levels released in the culture medium was quantitated by ELISA. Inhibitory potency was expressed as IC50.

Structure (SMILES)	IC50 [µM]
O=c1c(-c2ccccc2F)cc2cnc(NN3CC4CCCC4C3)nc2n1CC1CC1 (stereo not drawn) [Compound No. 23, 6-(2-Fluorophenyl)-2-(3-azabicyclo[3.3.0]oct-3-yl-amino)-8-(cyclopropylmethyl)-pyrido[2,3-d]pyrimidin-7(8H)-one]	0.14 to 3
COCCn1c(=O)c(-c2ccccc2C)cc2cnc(NN3CC4CCCC4C3)nc21 (stereo not drawn) [Compound No. 50, 6-(2-Methylphenyl)-2-(3-azabicyclo[3.3.0]oct-3-yl-amino)-8-(2-methoxyethyl)-pyrido[2,3-d]pyrimidin-7(8H)-one]	0.14 to 3
O=c1c(-c2ccccc2Cl)cc2cnc(NN3CC4CCCC4C3)nc2n1C1CC1 (stereo not drawn) [Compound No. 52, 6-(2-Chlorophenyl)-2-(3-azabicyclo[3.3.0]oct-3-yl-amino)-8-cyclopropyl-pyrido[2,3-d]pyrimidin-7(8H)-one]	0.14 to 3
CCOC(=O)Cn1c(=O)c(-c2ccccc2C)cc2cnc(NN3CC4CCCC4C3)nc21 (stereo not drawn) [Compound No. 44, Ethyl[2-(3-azabicyclo[3.3.0]oct-3-yl-amino)-6-(2-methylphenyl)-7-oxopyrido[2,3-d]pyrimidin-8(7H)-yl]acetate]	0.14 to 3
Cc1ccccc1-c1cc2cnc(NN3CC4CCCC4C3)nc2n(CC(=O)NC2CCC2)c1=O (stereo not drawn) [Compound No. 47, N-Cyclobutyl-2-[2-(3-azabicyclo[3.3.0]oct-3-yl-amino)-6-(2-methylphenyl)-7-oxopyrido[2,3-d]pyrimidin-8(7H)-yl]acetamide]	0.14 to 3
CCOC(=O)C(C)n1c(=O)c(-c2ccccc2F)cc2cnc(NN3CC4CCCC4C3)nc21 (stereo not drawn) [Compound No. 20, Ethyl 2-[6-(2-fluorophenyl)-2-(3-azabicyclo[3.3.0]oct-3-yl-amino)-7-oxopyrido[2,3-d]pyrimidin-8(7H)-yl]propanoate]	0.14 to 3
CCOCCn1c(=O)c(-c2ccccc2Cl)cc2cnc(NN3CC4CCCC4C3)nc21 (stereo not drawn) [Compound No. 25, 6-(2-Chlorophenyl)-2-(3-azabicyclo[3.3.0]oct-3-yl-amino)-8-(2-ethoxyethyl)pyrido[2,3-d]pyrimidin-7(8H)-one]	0.14 to 3
Cn1c(=O)c(-c2ccc(F)cc2Cl)cc2cnc(NN3CC4CCCC4C3)nc21 (stereo not drawn) [Compound No. 71, 6-(2-Chloro-4-fluorophenyl)-2-(3-azabicyclo [3.3.0]oct-3-yl-amino)-8-methylpyrido[2,3-d]pyrimidin-7(8H)-one]	0.14 to 3
CCOCCn1c(=O)c(-c2ccccc2C)cc2cnc(NN3CC4CCCC4C3)nc21 (stereo not drawn) [Compound No. 51, 6-(2-Methylphenyl)-2-(3-azabicyclo[3.3.0]oct-3-yl-amino)-8-(2-ethoxyethyl)pyrido[2,3-d]pyrimidin-7(8H)-one]	0.14 to 3
CCCCS(=O)(=O)NCCn1c(=O)c(-c2ccccc2C)cc2cnc(NN3CC4CCCC4C3)nc21 (stereo not drawn) [Compound No. 40, N-{2-[2-(3-azabicyclo[3.3.0]oct-3-yl-amino)-6-(2-methylphenyl)-7-oxopyrido[2,3-d]pyrimidin-8(7H)-yl]ethyl}butane-1-sulfonamide]	0.14 to 3
O=c1c(-c2ccccc2F)cc2cnc(NN3CC4CCCC4C3)nc2n1C1CCCC1 (stereo not drawn) [Compound No. 22, 6-(2-Fluorophenyl)-2-(3-azabicyclo[3.3.0]oct-3-yl-amino)-8-(cyclopentyl)pyrido[2,3-d]pyrimidin-7(8H)-one]	0.14 to 3
Cn1c(=O)c(-c2ccccc2Cl)cc2cnc(NN3CC4CCCC4C3)nc21 (stereo not drawn) [Compound No. 1, 6-(2-Chlorophenyl)-2-(3-azabicyclo[3.3.0]oct-3-yl-amino)-8-methylpyrido[2,3-d]pyrimidin-7(8H)-one]	0.14 to 3
Cn1c(=O)c(-c2ccccc2[N+](=O)[O-])cc2cnc(NN3CC4CCCC4C3)nc21 (stereo not drawn) [Compound No. 69, 6-(2-Nitrophenyl)-2-(3-azabicyclo [3.3.0]oct-3-yl-amino)-8-methyl-pyrido[2,3-d]pyrimidin-7(8H)-one]	0.14 to 3
O=c1c(Oc2ccccc2F)cc2cnc(NN3CC4CCCC4C3)nc2n1C1CC1 (stereo not drawn) [Compound No. 59, 6-(2-Fluorophenoxy)-2-(3-azabicyclo[3.3.0]oct-3-yl-amino)-8-cyclopropyl-pyrido[2,3-d]pyrimidin-7(8H)-one]	0.14 to 3
CCOC(=O)C(C)n1c(=O)c(-c2ccccc2C)cc2cnc(NN3CC4CCCC4C3)nc21 (stereo not drawn) [Compound No. 21, Ethyl 2-[6-(2-methylphenyl)-2-(3-azabicyclo [3.3.0]oct-3-yl-amino)-7-oxopyrido[2,3-d]pyrimidin-8(7H)-yl]propanoate]	0.14 to 3
Cn1c(=O)c(-c2c(Cl)cccc2Cl)cc2cnc(NN3CC4CCCC4C3)nc21 (stereo not drawn) [Compound No. 68, 6-(2,6-Dichlorophenyl)-2-(3-azabicyclo[3.3.0]oct-3-yl-amino)-8-methylpyrido[2,3-d]pyrimidin-7(8H)-one]	0.14 to 3

Reference: patent US20090036472A1, “AZABICYCLO DERIVATIVES AS ANTI-INFLAMMATORY AGENTS” (priority 2005, published 2009)
